Source: patent publication US20030009213A1, “Stent having cover with drug delivery capability” (priority 2000, published 2003)

Assay: Release of Taxol from a coated ePTFE stent cover after implantation
Format: in vivo
Conditions: first week after implantation; ePTFE stent cover with outer layer of Taxol, gelatin and poly(e-caprolactone) mixture (20:20:60)
Description: A polymeric stent cover, made of ePTFE, is provided with another layer of Taxol, gelatin, and poly(e-caprolactone) mixture (20:20:60) on the outside. 20% of the Taxol is released to the artery wall during the first week after implantation.

- Taxol released to the artery wall: 20%
SMILES: CC(=O)O[C@H]1C(=O)[C@@]2(C)[C@H]([C@H](OC(=O)c3ccccc3)[C@]3(O)C[C@H](OC(=O)[C@H](O)[C@@H](NC(=O)c4ccccc4)c4ccccc4)C(C)=C1C3(C)C)[C@]1(OC(C)=O)CO[C@@H]1C[C@@H]2O [Taxol]
